Where two headings read alike, the source gives them in different places.
Legend:
Format in all cases: binding
[1] = molecular target: T1, MD2 (myeloid differentiation protein 2) (Homo sapiens, UniProt Q9Y6Y9); assay: quenching of MD2 intrinsic fluorescence
T1 sequence (Q9Y6Y9 19-160): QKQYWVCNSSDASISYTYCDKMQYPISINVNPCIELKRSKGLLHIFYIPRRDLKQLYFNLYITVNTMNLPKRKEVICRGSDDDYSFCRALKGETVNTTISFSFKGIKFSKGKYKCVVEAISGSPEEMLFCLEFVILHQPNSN

[2] = molecular target: T1, MD2 (myeloid differentiation protein 2); assay: Bis-ANS-MD2 complex fluorescence, displaced by
[3] = molecular target: T1, MD2 (myeloid differentiation protein 2); assay: quenching of MD2 intrinsic fluorescence; remark: listed apart in the source

## C=CCN1CC[C@@]23c4c5ccc(O)c4O[C@@H]2C(=O)CC[C@]3(O)[C@@H]1C5 [(+)-naloxone]
[1]
  Kd: 16.6 ± 4.7 µM

## O=S(=O)(O)c1cccc2c(-c3ccc(Nc4ccccc4)c4c(S(=O)(=O)O)cccc34)ccc(Nc3ccccc3)c12 [Bis-ANS]
[2]
  Bis-ANS-MD2 complex fluorescence, displaced by (+)-naloxone: (+)-Naloxone decreased Bis-ANS-MD2 complex fluorescence, suggesting that (+)-naloxone replaces Bis-ANS binding to MD2

## C=CCN1CC[C@]23c4c5ccc(O)c4O[C@H]2C(=O)CC[C@@]3(O)[C@H]1C5 [(−)-naloxone]
[3]
  Kd: 17.7 ± 3.2 µM

From paper PMC3454463 (2012)
